Structures can show the parent of a compound that is named as a salt. Marks after values point to notes of the source that are not given here.
Assays:
[1] = molecular target: T1, human estrogen receptor α (hERα) (Homo sapiens, UniProt P03372); assay: antagonistic activity in CHO cells co-transfected with hERα, rat oxytocin promoter and luciferase reporter gene; type: cell-based; settings: antagonism of 17β-estradiol-induced transactivation, CHO-hERα-RO-LUC; read-out: ERα pIC50 (converted)
T1 sequence (P03372 1-595): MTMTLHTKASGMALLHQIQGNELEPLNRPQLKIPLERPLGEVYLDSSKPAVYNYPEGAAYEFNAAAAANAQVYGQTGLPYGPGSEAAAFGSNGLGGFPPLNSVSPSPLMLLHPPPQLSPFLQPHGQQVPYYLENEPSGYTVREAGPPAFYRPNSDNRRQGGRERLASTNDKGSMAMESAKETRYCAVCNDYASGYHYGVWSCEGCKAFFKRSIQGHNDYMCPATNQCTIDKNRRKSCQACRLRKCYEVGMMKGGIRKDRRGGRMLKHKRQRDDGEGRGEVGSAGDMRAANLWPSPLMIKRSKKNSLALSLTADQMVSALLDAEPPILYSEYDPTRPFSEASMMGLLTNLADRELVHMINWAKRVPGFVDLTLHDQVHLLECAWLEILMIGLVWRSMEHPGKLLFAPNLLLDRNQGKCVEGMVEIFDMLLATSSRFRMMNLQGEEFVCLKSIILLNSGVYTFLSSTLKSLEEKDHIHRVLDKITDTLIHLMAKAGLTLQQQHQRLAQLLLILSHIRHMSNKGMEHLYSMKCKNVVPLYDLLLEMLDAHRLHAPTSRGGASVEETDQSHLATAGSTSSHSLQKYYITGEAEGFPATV
Description: The antagonistic activity of compounds on the estrogen receptors was determined in an in vitro bioassay with recombinant Chinese Hamster Ovary (CHO) cells stably co-transfected with the human estrogen receptor α (hERα), the rat oxytocin promoter (RO) and the luciferase reporter gene (LUC). […] The antagonistic efficacy, i.e. the amount of maximal inhibition of the 17β-estradiol activated receptor by a compound, is expressed as fraction relative to the maximal inhibition as induced by the standard anti-estrogen ICI 164,384 (efficacy test compound=(maximal inhibition test compound/maximal inhibition ICI 164,384)). A more detailed description of the methodology can be found in De Gooyer et al., Steroids, 68 (2003) 21-30.

estrogen receptor alpha = molecular target: T2, estrogen receptor alpha (Homo sapiens, UniProt P03372); assay: ERα downregulation assay in T47D breast cancer cells (ERα ELISA); type: cell-based; settings: downregulation of ERα relative to fulvestrant (100%), 1E-5 M, 24 hours, negative = upregulation
T2 construct: endogenous in cells; host or cells: T47D human breast cancer cells (ATCC)
T2 sequence (P03372 1-595): T1 sequence (P03372 1-595)
Text: More specifically, this in vitro bioassay is used to determine the efficacy (fraction of maximal response) of the compound by comparing the data for this compound with those of the reference compound ICI 182,780 (fulvestrant) in the same test (downregulation of fulvestrant is 100% by definition).
A more detailed description of the method used is as follows.
Cell culture. The human epithelial breast cancer cell line T47D (origin: ATCC) was routinely maintained in a 1:1 mixture of Ham's F12 medium and Dulbecco's Modified Eagle Medium (Gibco) enriched with 5% fetal calf serum (Hyclone), 10 mM HEPES pH 7.5 and 100 μg/ml penicillin-streptomycin solution. Cells were grown in 80 cm2 culture flasks (Nunc, Roskilde, Denmark) and kept in an atmosphere of 5% CO2-95% air at 37 degrees Celsius. Cells were subcultured when they reached about 80-90% confluence, resulting in one passage a week. Subculturing includes detaching the cells using Cell Dissociation Buffer [Sigma] and subsequent inoculation at 1:5 or 1:10 in a new Roux flask (175 cc) and\or plating out in Nunclon™ Surface 96 wells microplates. The culture medium needs to be refreshed on day three or four of the incubation, if applicable.
Determination of ERα protein levels: T47D cells in the microplates are incubated with 1E-5 M test compound for 24 hours. The supernatant in all wells is carefully aspirated. Cells are lysed on the microplate and cell lysates are probed for ERα content using an ERα ELISA assay kit (Active Motif).

CCCN1CC(Oc2ccc(C(=O)c3c(-c4ccccc4C)noc3-c3ccc(O)cc3)cc2)C1.Cl [compound 7aj, (5-(4-hydroxyphenyl)-3-o-tolylisoxazol-4-yl)(4-(1-propylazetidin-3-yloxy)-phenyl)methanone hydrochloride] was tested, and the IC50 [1] was 3.16 nM and the “DR (%)” value (estrogen receptor alpha) was 100%.
For C=CCN1CC(Oc2ccc(-c3c(-c4ccc(O)cc4)sc4cc(O)ccc34)cc2)C1.O=C(O)C(F)(F)F [compound 7b, 3-(4-(1-allylazetidin-3-yloxy)phenyl)-2-(4-hydroxyphenyl)benzo[b]thiophen-6-ol 2,2,2-trifluoroacetate], the IC50 [1] was 0.631 nM and the “DR (%)” value (estrogen receptor alpha) was 68%.
For CCCN1CC(Oc2ccc(C(=O)c3c(-c4cccn4C)noc3-c3ccc(O)cc3)cc2)C1.Cl [7al, (5-(4-hydroxyphenyl)-3-(1-methyl-1H-pyrrol-2-yl)isoxazol-4-yl)(4-(1-propylazetidin-3-yloxy)phenyl)methanone hydrochloride], the IC50 [1] was 7.94 nM and the “DR (%)” value (estrogen receptor alpha) was 100%.
Cl.O=C(c1ccc(OC2CN(C3CCC3)C2)cc1)c1c(-c2ccc(O)cc2)sc2cc(O)ccc12 [compound 7l, (4-(1-cyclobutylazetidin-3-yloxy)phenyl)(6-hydroxy-2-(4-hydroxyphenyl)-benzo[b]thiophen-3-yl)methanone hydrochloride] was tested, and the IC50 [1] was 0.794 nM and the “DR (%)” value (estrogen receptor alpha) was 30%.
CCCN1CC(Oc2ccc(C(=C(CC)c3ccccc3)c3ccc(O)cc3)cc2)C1 (mixture of isomers) [compound 6v, (E/Z)-4-(2-phenyl-1-(4-(1-propylazetidin-3-yloxy)phenyl)but-1-enyl)phenol 2,-2,2-trifluoroacetate] was tested, and the IC50 [1] was 0.501 nM and the “DR (%)” value (estrogen receptor alpha) was −5 ^(d) %.
CCCN1CC(Oc2ccc([C@H]3c4ccc(O)cc4OC(C)(C)[C@@H]3c3ccccc3)cc2)C1.O=C(O)C(F)(F)F [compound 6p, (3S,4S)-2,2-dimethyl-3-phenyl-4-(4-(1-propylazetidin-3-yloxy)phenyl)chroman-7-ol 2,2,2-trifluoroacetate] was tested, and the IC50 [1] was 3.98 nM and the “DR (%)” value (estrogen receptor alpha) was 58%.
With CCCN1CC(Oc2ccc(Cc3c(-c4ccccc4)c(=O)oc4cc(OC)ccc34)cc2)C1 [compound 7bf, 7-methoxy-3-phenyl-4-(4-(1-propylazetidin-3-yloxy)benzyl)-2H-chromen-2-one] the IC50 [1] was 63.1 nM and the “DR (%)” value (estrogen receptor alpha) was 33%.
In the case of CCCN1CC(Oc2ccc(C(=C(Cl)c3ccccc3)c3ccccc3)cc2)C1 (mixture of isomers) [compound 6x, (E/Z)-3-(4-(2-chloro-1,2-diphenylvinyl)phenoxy)-1-propylazetidine 2,2,2-trifluoroacetate], the IC50 [1] is reported as 7.94 nM and the “DR (%)” value (estrogen receptor alpha) is reported as 63%.
With Cl.Oc1ccc(-c2onc(-c3ccccc3Cl)c2-c2ccc(OC3CN(CC4CCOC4)C3)cc2)cc1 (centres unmarked) [compound 7x, 4-(3-(2-chlorophenyl)-4-(4-(1-((tetrahydrofuran-3-yl)methyl)azetidin-3-yloxy)-phenyl)isoxazol-5-yl)phenol hydrochloride] the IC50 [1] was 0.501 nM and the “DR (%)” value (estrogen receptor alpha) was 66%.
For CN1CC(Oc2ccc(C(=O)c3c(-c4ccc(O)cc4)sc4cc(O)ccc34)cc2)C1.Cl [compound 7d, (6-hydroxy-2-(4-hydroxyphenyl)benzo[b]thiophen-3-yl)(4-(1-methylazetidin-3-yloxy)phenyl)methanone hydrochloride], the IC50 [1] was 2 nM and the “DR (%)” value (estrogen receptor alpha) was 48%.
With CCCN1CC(Oc2ccc(C(=O)c3c(-c4ccc(O)cc4)sc4cc(O)ccc34)cc2F)C1.Cl [compound 7u, (3-fluoro-4-(1-propylazetidin-3-yloxy)phenyl)(6-hydroxy-2-(4-hydroxyphenyl)-benzo[b]thiophen-3-yl)methanone hydrochloride] the IC50 [1] was 0.794 nM and the “DR (%)” value (estrogen receptor alpha) was 78%.
In the case of CCCN1CC(Oc2ccc(C(=O)c3c(-c4ccccc4)sc4cc(O)ccc34)cc2)C1.Cl [compound 7e, (6-hydroxy-2-phenylbenzo[b]thiophen-3-yl)(4-(1-propylazetidin-3-yloxy)-phenyl)methanone hydrochloride], the IC50 [1] is reported as 2 nM and the “DR (%)” value (estrogen receptor alpha) is reported as 96%.
In the case of CN1CC(Oc2ccc(-c3c(-c4ccc(O)cc4)sc4cc(O)ccc34)cc2)C1 [compound 6a, 2-(4-hydroxyphenyl)-3-(4-(1-methylazetidin-3-yloxy)phenyl)benzo[b]thiophen-6-ol 2,2,2-trifluoroacetate], the IC50 [1] is reported as 0.794 nM.
With Oc1ccc(-c2onc(-c3ccccc3Cl)c2-c2ccc(OC3CNC3)cc2)cc1 [compound 6f, 4-(4-(4-(azetidin-3-yloxy)phenyl)-3-(2-chlorophenyl)isoxazol-5-yl)phenol] the IC50 [1] was 15.8 nM.
CCC(C)N1CC(Oc2ccc(-c3c(-c4ccccc4Cl)noc3-c3ccc(O)cc3)cc2)C1 (centres unmarked) [compound 6i, 4-(4-(4-(1-sec-butylazetidin-3-yloxy)phenyl)-3-(2-chlorophenyl)isoxazol-5-yl)-phenol hydrochloride] was tested, and the IC50 [1] was 1 nM.
Work on CCCN1CC(Oc2ccc([C@H]3C[C@]4(C)[C@@H](O)CC[C@H]4[C@@H]4CCc5cc(O)ccc5C34)cc2)C1 (stereo partly drawn) [compound 6s, (8S,11S,13S,14S,17S)-13-methyl-11-(4-(1-propylazetidin-3-yloxy)phenyl)-7,-8,9,10,11,12,13,14,15,16,17-decahydro-6H-cyclopenta[a]phenanthrene-3,17-diol] yielded an IC50 [1] of 2.51 nM.
In the case of CC(C)N1CC(Oc2ccc(C(=O)c3c(-c4ccc(O)cc4)sc4cc(O)ccc34)cc2)C1 [compound 6e, (6-hydroxy-2-(4-hydroxyphenyl)benzo[b]thiophen-3-yl)(4-(1-isopropylazetidin-3-yloxy)phenyl)methanone hydrochloride], the IC50 [1] is reported as 1.58 nM.
CCCN1CC(Oc2ccc(Cc3c(-c4ccccc4)c(=O)oc4cc(O)ccc34)cc2)C1 [compound 6r, 7-hydroxy-3-phenyl-4-(4-(1-propylazetidin-3-yloxy)benzyl)-2H-chromen-2-one 2,2,2-trifluoroacetate] showed an IC50 [1] of 1.58 nM.
With CCCN1CC(Oc2ccc(-c3c(-c4ccccc4C)noc3-c3ccc(O)cc3)cc2)C1 [compound 6j, 4-(4-(4-(1-propylazetidin-3-yloxy)phenyl)-3-o-tolylisoxazol-5-yl)phenol 2,2,2-trifluoroacetate] the IC50 [1] was 0.398 nM.
In the case of C[C@]12C[C@H](c3ccc(OC4CN(CC5CC5)C4)cc3)C3c4ccc(O)cc4CC[C@H]3[C@@H]1CC[C@@H]2O (stereo partly drawn) [compound 6t, (8S,11S,13S,14S,17S)-11-(4-(1-(cyclopropylmethyl)azetidin-3-yloxy)phenyl)-13-methyl-7,8,9,10,11,12,13,14,15,16,17-decahydro-6H-cyclopenta[a]phenanthrene-3,17-diol], the IC50 [1] is reported as 3.16 nM.
Compound CCCCN1CC(Oc2ccc(-c3c(-c4ccccc4Cl)noc3-c3ccc(O)cc3)cc2)C1 [compound 6h, 4-(4-(4-(1-butylazetidin-3-yloxy)phenyl)-3-(2-chlorophenyl)isoxazol-5-yl)-phenol hydrochloride] has an IC50 [1] of 0.631 nM.
For CCCN1CC(Oc2ccc(-c3c(-c4ccccc4Cl)noc3-c3ccc(O)cc3C)cc2)C1 [compound 6k, 4-(3-(2-chlorophenyl)-4-(4-(1-propylazetidin-3-yloxy)phenyl)isoxazol-5-yl)-3-methylphenol 2,2,2-trifluoroacetate], the IC50 [1] was 0.501 nM.
CCCN1CC(Oc2ccc(-c3c(-c4ccccc4Cl)noc3-c3ccc(O)c(C)c3)cc2)C1 [compound 6l, 4-(3-(2-chlorophenyl)-4-(4-(1-propylazetidin-3-yloxy)phenyl)isoxazol-5-yl)-2-methylphenol 2,2,2-trifluoroacetate] gave an IC50 [1] of 0.631 nM.

Source: US9540361B2, “N-substituted azetidine derivatives” (Merck Sharp & Dohme B.V., priority 2010, dated 2017)
